According to patent US20230137491A1, “PEPTIDES AND USES THEREOF” (SINTICA BIOTECH SOCIETÀ A RESPONSABILITÀ LIMITATA …, priority 2020, published 2023):
Non-standard residues stand in square brackets, D forms with d. methoxy‑PEG 20 kDa = linear 20 kDa methoxy-PEG conjugated through D-Cys sulfur

Columns and labels:
CD271 = target: T1, CD271 (Homo sapiens, UniProt P08138); assay: Immunoprecipitation of melanoma cell lysates with the peptide, blotted against CD271; format: binding; details: protein extracts of WM266-4 and 1205Lu melanoma cell lines
T1 construct: total protein lysates of WM266-4 and Lu1205 melanoma cell lines were immunoprecipitated with the peptide conjugated to sepharose beads; endogenous in cells; host or cells: WM266-4 and 1205Lu melanoma cell lines (ATCC)
T1 sequence (P08138 29-427): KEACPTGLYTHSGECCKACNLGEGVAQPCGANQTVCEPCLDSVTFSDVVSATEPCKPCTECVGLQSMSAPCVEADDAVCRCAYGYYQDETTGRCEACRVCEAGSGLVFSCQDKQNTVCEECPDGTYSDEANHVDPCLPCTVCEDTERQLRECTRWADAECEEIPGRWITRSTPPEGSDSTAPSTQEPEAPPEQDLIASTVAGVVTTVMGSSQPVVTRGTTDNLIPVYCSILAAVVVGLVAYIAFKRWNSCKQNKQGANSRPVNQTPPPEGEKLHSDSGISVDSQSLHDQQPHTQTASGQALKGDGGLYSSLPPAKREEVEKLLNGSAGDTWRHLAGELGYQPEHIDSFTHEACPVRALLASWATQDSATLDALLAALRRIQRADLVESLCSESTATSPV
Procedure: FIG. 1. […] Protein extracts from two melanoma cell lines were immunoprecipitated with the Pegylated form of the peptide (XYZ) and blotted against CD271. The sepharose beads-protein lysates (without CD271) is used as negative control, while no-immunoprecipitated protein lysate from WM266-4 is used as positive control.
1205Lu and WM266-4 melanoma cell lines were treated with or without XYZ. 24 h later cells were harvested with RIPA buffer (10 mM Tris, pH 8.0; 150 mM NaCl; 1% Nonidet P-40, 0.5% deoxycholate; 0.1% SDS) containing protease inhibitors. Nuclei were removed by centrifugation (11,000 rpm for 3 min). Monoclonal antibody anti-p75NTR (Upstate) was bound to sepharose beads lh at 4° C. under rotation. Then, pre-cleared lysates were conjugated to sepharose beads-antibody complex or to sepharose beads alone as negative control, overnight at 4° C. under rotation. Immunocomplexes were washed with Port Buffer (10 mM Tris-HCl, pH 8.5; 150 mM NaCl; 0.1% Renex 30; 0.01% BSA; 2.5% NaN3) six times and with PT Buffer (10 mM Tris-HCl, pH 8.5; 150 mM NaCl; 0.5% Tween 20; 2.5% NaN3) three times. Samples were eluted with 1× Laemnli sample buffer for […] at 90° C. and Western Blotting for p75NTR was performed.
Immunocomplexes were washed with Port Buffer and with PT Buffer, then eluted with Laemnli sample buffer for 5′ at 90° C. […]

[1] = test system: melanoma cell lines (WM115, WM266-4, SKmel28, WM793B, 1205Lu); assay: MTT assay in melanoma cell lines; format: cell-based, human
Procedure: (§1) 5×10^3 cells/well were seeded in 96-well culture plates. At different time points, cells were incubated with 0.5% MTT (3-(4,5-dimethylthiazol-2-yl)-2,5-diphenyltetrazolium bromide) for 4 h at 37° C. and then dissolved with 100 μl Isopropanol with 0.04N HCl. The plate was read at 560 nm with a reference filter of 650 nm. Results are expressed as viability percentage, as compared to control.
Five melanoma cell lines were used for testing the efficacy of XYZ or its non-PEGylated peptide component: WM115 and WM266-4, which are respectively the primary and metastatic melanoma derived from the same patient and expressing high levels of CD271, and SKme128, a metastatic melanoma cell line expressing low levels of CD271, WM793B, a primary melanoma, and 1205Lu derived from lung metastatic melanoma. The viability of the cell culture is assessed by MTT conversion. MTT solution is applied to the plates and placed into a cell culture incubator for 4 hours. The blue formazan metabolite produced by viable cells is then extracted into isopropanol and absorbance is measured at 570 nm using a spectrophotometer.

[2] = test system: primary and metastatic melanoma cell lines; assay: Trypan blue viable cell counting in relation to CD271 levels by flow cytometry; format: cell-based, human; details: five primary and metastatic melanoma cell lines
Procedure: FIG. 4. The peptide-induced cell death correlates with CD271 expression levels in melanoma cell lines. Five primary and metastatic melanoma cell lines were cultured and viability measured by Trypan blue staining solution. Flow cytometry was used to evaluate the expression level of CD271 receptor. Because CD271 mediates apoptosis in many cell systems, we analysed the effect of XYZ in melanoma cell lines in relation to the levels of the receptor. After treatment, melanoma cell lines were harvested and incubated with Trypan Blue staining solution or incubated with CD271 antibody for flow cytometer analysis.

[3] = test system: WM115 CD271 silenced (siRNA) melanoma cell line; assay: MTT assay in CD271-silenced (siRNA) cells; format: cell-based, human; details: WM115 transfected with CD271 siRNA
Description: FIG. 6. The peptide reduces melanoma cell viability through CD271. WM115 melanoma cell line was transiently transfected with CD271 siRNA, as shwon by western blotting. MTT assay was used to measure cell viability after treatment with the peptide (XYZ) or the diluent in siRNA and scramble cells. SKme128 melanoma cell line was transiently transfected with CD271 mRNA, as shown by western blotting. MTT assay was used to measure cell viability after treatment with the peptide (XYZ) or the diluent in siRNA and scramble cells. Student's t-test was used for comparison of the means.
as §1
Melanoma cells were plated in 2D for 24 h in antibiotic free medium. WM115 cell line was then transfected with scrambled or CD271 siRNA (50 nM and 100 nM, respectively) (Dharmacon Inc, Lafayette, Colo., USA) in antibiotic/FBS free medium supplemented with 0.1% BSA and 48 h later cells were seeded for MTT assay or lysed for western blotting.

Substance: Ac-DMet-DLeu-Gly-DIle-DIle-DAla-Gly-DLys-DAsn-DSer-Gly-DCys-NH2 with a linear 20 kDa methoxy-PEG polymer conjugated to the D-Cys residue through the sulfur atom of the latter (Ac-[dM][dL]G[dI][dI][dA]G[dK][dN][dS]G[dC](methoxy‑PEG 20 kDa)-NH2) [XYZ]
- binding to CD271 (immunoprecipitation, blot against CD271) (CD271): immunoprecipitate with CD271
- cell proliferation (MTT assay), dose dependence ([1]; WM115, WM266-4 and SKmel28, different doses and time points): diminishes cell proliferation, as shown by MTT assay, in a dose-dependent manner
- cell proliferation (MTT assay) ([1]; five melanoma cell lines, 48 h and 96 h after treatment, no significant difference between PEGylated and non-PEGylated form): reduce cell proliferation
- cell death versus CD271 expression level (Trypan blue viable cell counting, flow cytometry) [2]: more efficacious in cell lines expressing higher levels of CD271
- cell viability (MTT assay) in CD271-silenced cells [3]: fails to reduce cell viability
